Measurements published in patent US9211310B2, “Use of a Chinese medicine composition in preparing medicaments for treating secondary prevention of myocardial infarction” (TASLY PHARMACEUTICAL GROUP CO., LTD, priority 2010, dated 2015).

System: patients after acute myocardial infarction
Test: TCM symptom score, total and single (chest pain, chest tightness, short breath, fatigue, palpitation, spontaneous perspiration, pale complexion), same clinical trial
Assay type: in vivo, human
Set-up: total score of TCM symptom, Mean / total score of TCM symptom, Min / total score of TCM symptom, Max / total score of TCM symptom, Md / change of total score of TCM symptom, Mean / change of total score of TCM symptom, Max / change of total score of TCM symptom, Md: scale not given here
Settings: FAS
Excerpt: 3508 patients who were in accordance with the diagnostic standards of AMI for 28 days to 2 years and differentiated as Qi deficiency and blood stagnation syndrome by TCM were studied. 0.5 g Chinese medicine composition prepared by the method of EXAMPLE 1 (Coded as QSYQ) was administrated half an hour after meal, 3 times per day.
They included the overall survival time, angina pectoris score, TCM symptom score and life quality score, where angina pectoris score, TCM symptom score and life quality score were evaluated at randomization, in 1st, 3rd, 6th, 9th, 12th month after treatment and 18th month after follow-up.
The analysis method referred to the angina pectoris score.

[1] = 6 months after treatment-baseline
[2] = 9 months after treatment-baseline

CC(=O)Oc1ccccc1C(=O)O [Control group, aspirine]
change of fatigue −2, number of patients [1]: 108 | change of fatigue −4, % of patients [1]: (0.70%) | change of fatigue −4, number of patients [1]: 12 | change of fatigue −6, % of patients [1]: (0.00%) | change of fatigue −6, number of patients [1]: 0 | change of pale complexion 0, number of patients [1]: 1322 | change of pale complexion 0, percent of patients [1]: (77.40%) | change of pale complexion 1, number of patients [1]: 319 | change of pale complexion 1, percent of patients [1]: (18.68%) | change of pale complexion −1, number of patients [1]: 67 | change of pale complexion −1, percent of patients [1]: (3.92%) | change of palpitation 0, number of patients [1]: 1034 | change of palpitation 0, percent of patients [1]: (60.47%) | change of palpitation 1, number of patients [1]: 490 | change of palpitation 1, percent of patients [1]: (28.65%) | change of palpitation 2, number of patients [1]: 56 | change of palpitation 2, percent of patients [1]: (3.27%) | change of palpitation 3, number of patients [1]: 9 | change of palpitation 3, percent of patients [1]: (0.53%) | change of palpitation −1, percent of patients [1]: (6.78%) | change of palpitation −2, number of patients [1]: 5 | change of palpitation −2, percent of patients [1]: (0.29%) | change of palpitation −3, number of patients [1]: 0 | change of palpitation −3, percent of patients [1]: (0.00%) | change of short breath 0, % of patients [1]: (64.85%) | change of short breath 0, number of patients [1]: 1109 | change of short breath 2, % of patients [1]: (25.44%) | change of short breath 2, number of patients [1]: 435 | change of short breath 4, % of patients [1]: (2.98%) | change of short breath 4, number of patients [1]: 51 | change of short breath 6, % of patients [1]: (0.53%) | change of short breath 6, number of patients [1]: 9 | change of short breath −2, % of patients [1]: (5.96%) | change of short breath −2, number of patients [1]: 102 | change of short breath −4, % of patients [1]: (0.12%) | change of short breath −4, number of patients [1]: 2 | change of short breath −6, % of patients [1]: (0.12%) | change of short breath −6, number of patients [1]: 2 | change of spontaneous perspiration 0, number of patients [1]: 959 | change of spontaneous perspiration 0, percent of patients [1]: (56.11%) | change of spontaneous perspiration 1, number of patients [1]: 468 | change of spontaneous perspiration 1, percent of patients [1]: (27.38%) | change of spontaneous perspiration 2, number of patients [1]: 93 | change of spontaneous perspiration 2, percent of patients [1]: (5.44%) | change of spontaneous perspiration 3, number of patients [1]: 29 | change of spontaneous perspiration 3, percent of patients [1]: (1.70%) | change of spontaneous perspiration −1, number of patients [1]: 137 | change of spontaneous perspiration −1, percent of patients [1]: (8.02%) | change of spontaneous perspiration −2, number of patients [1]: 23 | change of spontaneous perspiration −2, percent of patients [1]: (1.35%) | change of spontaneous perspiration −3, number of patients [1]: 0 | change of spontaneous perspiration −3, percent of patients [1]: (0.00%) | change of total score of TCM symptom, Max [1]: 19.00 | change of total score of TCM symptom, Md [1]: −3.00 | change of total score of TCM symptom, Mean [1]: −3.76 | change of total score of TCM symptom, Min [1]: −33.00 | distribution of total score of TCM symptom: Medium, number of patients (9 months after treatment): 345 | distribution of total score of TCM symptom: Medium, percentage of patients (9 months after treatment): (23.03%) | distribution of total score of TCM symptom: Mild, number of patients (9 months after treatment): 1149 | distribution of total score of TCM symptom: Mild, percentage of patients (9 months after treatment): (76.70%) | distribution of total score of TCM symptom: Severe, number of patients (9 months after treatment): 4 | distribution of total score of TCM symptom: Severe, percentage of patients (9 months after treatment): (0.27%) | fatigue score 0, % of patients (9 months after treatment): (33.53%) | fatigue score 0, number of patients (9 months after treatment): 576 | fatigue score 2, % of patients (9 months after treatment): (60.24%) | fatigue score 2, number of patients (9 months after treatment): 1035 | fatigue score 4, % of patients (9 months after treatment): (5.12%) | fatigue score 4, number of patients (9 months after treatment): 88 | fatigue score 6, % of patients (9 months after treatment): (1.11%) | fatigue score 6, number of patients (9 months after treatment): 19 | pale complexion score 0, number of patients (9 months after treatment): 912 | pale complexion score 0, percent of patients (9 months after treatment): (53.08%) | pale complexion score 1, number of patients (9 months after treatment): 653 | pale complexion score 1, percent of patients (9 months after treatment): (38.01%) | pale complexion score 2, number of patients (9 months after treatment): 142 | pale complexion score 2, percent of patients (9 months after treatment): (8.27%) | pale complexion score 3, number of patients (9 months after treatment): 11 | pale complexion score 3, percent of patients (9 months after treatment): (0.64%) | palpitation score 0, number of patients (9 months after treatment): 581 | palpitation score 0, percent of patients (9 months after treatment): (33.82%) | palpitation score 2, number of patients (9 months after treatment): 929 | palpitation score 2, percent of patients (9 months after treatment): (54.07%) | palpitation score 4, number of patients (9 months after treatment): 179 | palpitation score 4, percent of patients (9 months after treatment): (10.42%) | palpitation score 6, number of patients (9 months after treatment): 29 | palpitation score 6, percent of patients (9 months after treatment): (1.69%) | short breath score 0, % of patients (9 months after treatment): (28.46%) | short breath score 0, number of patients (9 months after treatment): 489 | short breath score 3, % of patients (9 months after treatment): (57.86%) | short breath score 3, number of patients (9 months after treatment): 994 | short breath score 6, % of patients (9 months after treatment): (13.21%) | short breath score 6, number of patients (9 months after treatment): 227 | short breath score 9, % of patients (9 months after treatment): (0.47%) | short breath score 9, number of patients (9 months after treatment): 8 | spontaneous perspiration score 0, number of patients (9 months after treatment): 788 | spontaneous perspiration score 0, percent of patients (9 months after treatment): (45.87%) | spontaneous perspiration score 1, number of patients (9 months after treatment): 813 | spontaneous perspiration score 1, percent of patients (9 months after treatment): (47.32%) | spontaneous perspiration score 2, number of patients (9 months after treatment): 105 | spontaneous perspiration score 2, percent of patients (9 months after treatment): (6.11%) | spontaneous perspiration score 3, number of patients (9 months after treatment): 12 | spontaneous perspiration score 3, percent of patients (9 months after treatment): (0.70%) | total score of TCM symptom, Max (9 months after treatment): 37.00 | total score of TCM symptom, Md (9 months after treatment): 8.00 | total score of TCM symptom, Mean (9 months after treatment): 9.29 | total score of TCM symptom, Min (9 months after treatment): 0.00 | change of fatigue 0, % of patients [2]: (50.53%) | change of fatigue 0, number of patients [2]: 864 | change of fatigue 2, % of patients [2]: (33.45%) | change of fatigue 2, number of patients [2]: 572 | change of fatigue 4, % of patients [2]: (7.31%) | change of fatigue 4, number of patients [2]: 125 | change of fatigue 6, % of patients [2]: (1.17%) | change of fatigue 6, number of patients [2]: 20 | change of fatigue −2, % of patients [2]: (6.73%) | change of fatigue −2, number of patients [2]: 115 | change of fatigue −4, % of patients [2]: (0.76%) | change of fatigue −4, number of patients [2]: 13 | change of fatigue −6, % of patients [2]: (0.06%) | change of fatigue −6, number of patients [2]: 1 | change of pale complexion 0, number of patients [2]: 1284 | change of pale complexion 0, percent of patients [2]: (75.18%) | change of pale complexion 1, number of patients [2]: 365 | change of pale complexion 1, percent of patients [2]: (21.37%)
